Experimental data reported in patent US20100021427A1, “Use of Antiviral Peptides For Treatment of Infections Caused by Drug-Resistant HIV” (Tianjin FusoGen Pharmaceuticals, Inc., priority 2008, published 2010).

Columns and labels:
[1] = target: T1, 6-HB between C34-biotin and N36 (Human immunodeficiency virus type 1 group M subtype B, UniProt P04578); assay: ELISA (mAb NC-1) of inhibition of 6-helix bundle formation; type: biochemical, HIV
T1 construct: protease-resistant N- and C-peptides from gp41
Experimental: A 96-well polystyrene plate (Costar, Corning Inc., Corning, N.Y.) was coated with a 6-HB-specific monoclonal antibody NC-1 IgG (4 μg/mL in 0.1 M Tris, pH 8.8). […] The mixture was then added to the NC-1-coated plate, followed by incubation at room temperature for 30 min and washing with a washing buffer (PBS containing 0.1 % Tween 20) three times. Then streptavidin-labeled horseradish peroxidase (Invitrogen) and the substrate 3,3′,5,5′-tetramethylbenzidine (Sigma) were added sequentially. Absorbance at 450 nm (A450) was measured using an ELISA reader (Ultra 384, Tecan, Research Triangle Park, N.C.). The percent inhibition by the peptides and the IC50 values were calculated as previously described (Jiang, S. B., et al J.EXP.MED. 1991; 174: 1557-1563).

NL4-3 (V38A/N42T) = type: cell-based, HIV-1; conditions: T20-resistant (R) virus, MT-2 cells, p24, fourth day; read-out: IC50 (Mean ± SD)
Experimental: (§1) Two T20-sensitive and five T20-resistant strains with well defined genetic mutations conferring the resistance were used in this experiment (Rimsky, L. T., et al. J.VIROL. 1998; 72: 986-993). Briefly, 1×10^4 MT-2 cells were infected with HIV-1 isolates at 100 TCID50 (50% tissue culture infective dose) in 200 μl RPMI 1640 medium containing 10% FBS in the presence or absence of FS-01 at graded concentrations overnight. Then the culture supernatants were removed and fresh media without FS-01 were added. On the fourth day post-infection, 100 μl of culture supernatants were collected from each well, mixed with equal volumes of 5% Triton X-100 and assayed for p24 antigen by ELISA.

NL4-3 (parental) = type: cell-based, HIV-1; conditions: T20-sensitive (S) virus, MT-2 cells, p24, fourth day; read-out: IC50 (Mean ± SD)
Experimental: as §1

NL4-3 (V38A) = type: cell-based, HIV-1; conditions: T20-resistant (R) virus, MT-2 cells, p24, fourth day; read-out: IC50 (Mean ± SD)
Experimental: as §1

NL4-3 (V38E/N42S) = type: cell-based, HIV-1; conditions: T20-resistant (R) virus, MT-2 cells, p24, fourth day; read-out: IC50 (Mean ± SD)
Experimental: as §1

NL4-3 (N42S) = type: cell-based, HIV-1; conditions: T20-sensitive (S) virus, MT-2 cells, p24, fourth day; read-out: IC50 (Mean ± SD)
Experimental: as §1

NL4-3 (V38A/N42D) = type: cell-based, HIV-1; conditions: T20-resistant (R) virus, MT-2 cells, p24, fourth day; read-out: IC50 (Mean ± SD)
Experimental: as §1

NL4-3 (N42T/N43K) = type: cell-based, HIV-1; conditions: T20-resistant (R) virus, MT-2 cells, p24, fourth day; read-out: IC50 (Mean ± SD)
Experimental: as §1

POPC LUVs [2] = assay: Tryptophan fluorescence spectroscopy, peptide-lipid interaction; type: binding; conditions: peptide 10 μM, POPC LUVs 2 mM, excitation 295 nm
Experimental: (§2) So, the POPC LUV liposome system was employing to investigate the binding activity of FS-01 to lipid membranes. Large unilamellar vesicles (LUVs) of 1-palmitoyl-2-oleoyl-sn-glycero-3-phosphocholine (POPC) liposome were prepared as previously described (Liu, S., et al. J.BIOL.CHEM. 2007; 282: 9612-9620). Briefly, 20 mg of POPC stock solution was dried under a stream of nitrogen and stored in vacuum overnight to completely remove trace amounts of organic solvent. The dried lipid film was suspended by vortexing in 2 mL PBS buffer. The resultant multilamellar vesicle suspension was freeze-thawed for 5 cycles and then successively extruded through two stacked polycarbonate filters (0.1 μm) 13 times using an Avanti miniextruder.
Spectra were baseline-corrected by subtracting blank spectra of the corresponding solutions without peptide.

[3] = system: HIV-1IIIB-mediated cell-cell fusion (H9/HIV-1IIIB-infected cells with MT-2 cells); assay: Dye transfer assay of HIV-1 mediated cell-cell fusion; type: cell-based
Experimental: (§3) A dye transfer assay was used for detection of HIV-1 mediated cell-cell fusion as previously described in (Jiang, S., et al. Antimicrob.Agents Chemother. 2004; 48: 4349-4359. In brief, H9/HIV-1IIIB-infected cells were labeled with a fluorescent reagent, Calcein-AM (Molecular Probes, Inc., Eugene, OR) and then incubated with MT-2 cells (ratio =1:5) in 96-well plates at 37° C. for 2 h in the presence or absence of peptides. The fused and unfused calcein-labeled HIV-1-infected cells were counted under an inverted fluorescence microscope (Zeiss, Germany) with an eyepiece micrometer disc. The inhibition percent of cell-cell fusion and the IC50 values were calculated as described. […] The inhibitory activity of FS-01 on HIV-1-mediated infection was conducted too.

N36 [4] = target: T2, N36 (Human immunodeficiency virus type 1 group M subtype B, UniProt P04578); assay: Circular dichroism (CD) spectroscopy and thermal denaturation of peptide/N36 mixtures; type: binding, HIV
T2 construct: protease-resistant N- and C-peptides from gp41
Experimental: Circular dichroism (CD) spectroscopy was performed following the method previously described in He, Y., et al. J.BIOL.CHEM. 2007; 282: 25631-25639. […] The final peptide concentration was 10 μM in 50 mM sodium phosphate and 150 mM NaCl, pH 7.2. The N-, C-peptides as well as FS-01 by itself was also tested. CD spectra of these individual peptides and peptide mixtures were acquired on Jasco spectropolarimeter (Model J-715, Jasco Inc., Japan) at room temperature using a 5.0-nm band with, 0.1-nm resolution, 0.1-cm path length, 4.0-s response time, and a 50-nm/min scanning speed. The spectra were corrected by subtraction of a blank corresponding to the solvent. The a-helical content was calculated from the CD signal by dividing the mean residue ellipticity at 222 nm by the value expected for 100% helix formation (−33,000 degrees cm^2 dmol^−1) according to existing literature (Shu, W., et al. BIOCHEMISTRY 2000; 39: 1634-1642; Chen, Y. H., et al. BIOCHEMISTRY 1974; 13: 3350-3359). Thermal denaturation was monitored at 222 nm by applying a thennal gradient of 2° C./min in the range of 4-98° C. To determine the reversibility, the peptide mixtures were then cooled to 4° C. and kept in the CD chamber at 4° C. for 30 min, followed by monitoring of thermal denaturation as described above. The melting curve was smoothened, and the midpoint of the thermal unfolding transition (Tm) values was calculated using Jasco software utilities.

HIV-1IIIB = assay: HIV-1IIIB-mediated infection of MT-2 cells; type: cell-based
Experimental: as §3
as §1, with “On the fourth day post-infection, 100 μl of culture supernatants were collected from each well, mixed with equal volumes of 5% Triton X-100 and assayed for p24 antigen by ELISA.” left out

POPC LUVs [5] = assay: Isothermal titration calorimetry (ITC), peptide-lipid binding; conditions: LUVs injected into peptide solution
Experimental: as §2
Solutions were degassed under vacuum prior to use. LUVs of POPC were injected into the chamber containing a peptide solution or buffer only (as a control). The heats generated in control experiments by injecting lipid vesicles into buffer without a peptide were subtracted from the heats produced in the corresponding peptide-lipid binding experiments. Data acquisition and analyses were performed using MicroCal's Origin software (Version 7.0).

N36 [6] = target: T2, N36; assay: Native polyacrylamide gel electrophoresis (N-PAGE), 6-HB formation; type: binding, HIV; conditions: 40 μM, 37° C. 30 min
Experimental: Native polyacrylamide gel electrophoresis (N-PAGE) was carried out to determine the 6-HB formation between the N- and C-peptides using the described previously (Liu, S., et al. PEPTIDES 2003, 24:1303-1313). […] The mixture was loaded onto a 10×1.0-cm precast 18% Tris-glycine gels (Invitrogen, Carlsbad, Calif.) at 25 μL/per well with an equal volume of Tris-glycine native sample buffer (Invitrogen). Gel electrophoresis was carried out with 125 V constant voltage at room temperature for 2 h. The gel was then stained with Coomassie blue and imaged with a FluorChem 8800 Imaging System (Alpha Innotech Corp., San Leandro, Calif.).

94UG103 (clade A, X4R5) = assay: Primary HIV-1 isolate infection of PBMC, p24 ELISA; type: cell-based; conditions: p24 production, 7 days post infection
Experimental: (§4) The inhibitory activity of FS-01 against primary HIV-1 isolates was determined as previously described in (Jiang, S., et al. ANTIMICROB. AGENTS CHEMOTHER. 2004; 48: 4349-4359. The peripheral blood mononuclear cells (PBMC) were isolated from the blood of healthy donors using a standard density gradient (Histopaque-1077, Sigma) centrifugation. The cells were plated in 75-cm plastic flasks and incubated at 37° C. for 2 h. The nonadherent cells were collected and resuspended at 5×10^5/mL in RPMI 1640 medium containing 10% FBS, 5 μg of phytohemagglutinin (PHA)/mL, and 100 U of interleukin-2/mL, followed by incubation at 37° C. for 3 days. The PHA-stimulated cells were infected with the corresponding primary HIV-1 isolates at a multiplicity of infection (MOI) of 0.01 in the absence or presence of FS-01 at graded concentrations. Culture media were changed every 3 days. The supernatants were collected 7 days post infection and tested for p24 antigen by ELISA. The percent inhibition of p24 production and IC50/IC90 values were calculated.

92US657 (clade B, R5) = assay: Primary HIV-1 isolate infection of PBMC, p24 ELISA; type: cell-based; conditions: p24 production, 7 days post infection
Experimental: as §4

92UG001 (clade D, X4R5) = assay: Primary HIV-1 isolate infection of PBMC, p24 ELISA; type: cell-based; conditions: p24 production, 7 days post infection
Experimental: as §4

93BR020 (clade F, X4R5) = assay: Primary HIV-1 isolate infection of PBMC, p24 ELISA; type: cell-based; conditions: p24 production, 7 days post infection
Experimental: as §4

92TH009 (clade E, R5) = assay: Primary HIV-1 isolate infection of PBMC, p24 ELISA; type: cell-based; conditions: p24 production, 7 days post infection
Experimental: as §4

93IN101 (clade C, R5) = assay: Primary HIV-1 isolate infection of PBMC, p24 ELISA; type: cell-based; conditions: p24 production, 7 days post infection
Experimental: as §4

T2 sequence (P04578 546-581): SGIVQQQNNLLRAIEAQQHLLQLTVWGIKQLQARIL
T1 sequence (P04578 546-581): as above

Ac-SWETWEREIENYTRQIYRILEESQEQQDRNERDLLE-NH2 [FS-01]
IC50 [1]: 120 nM
IC50 (NL4-3 (V38A/N42T)): 30.4 ± 4.36 nM
IC50 (NL4-3 (parental)): 12.6 ± 1.18 nM
IC50 (NL4-3 (V38A)): 3.44 ± 0.23 nM
IC50 (NL4-3 (V38E/N42S)): 43.5 ± 3.36 nM
IC50 (NL4-3 (N42S)): 2.68 ± 0.87 nM
IC50 (NL4-3 (V38A/N42D)): 47.8 ± 4.7 nM
IC50 (NL4-3 (N42T/N43K)): 37.8 ± 15.6 nM
shift of tryptophan fluorescence spectra in POPC LUVs compared to PBS (POPC LUVs [2]): did not show remarkable fluorescence spectra shift
fold more active than T20 in inhibiting membrane fusion [3]: about 6 fold
IC50 ([3]; 37° C. for 2 h, read-out: IC50, inhibition of cell-cell fusion): 3.6 nM
higher melting temperature of FS-01/N36 complex compared to C34/N36 complex (N36 [4]): 10 °C
helical content in the presence of N36 (N36 [4]; CD at 222 nm, equal molar with N36, 10 μM, pH 7.2): 93%
formation of α-helical complexes with N36 (CD minimum at 208 and 222 nm) (N36 [4]; equal molar with N36, 10 μM): formation of secondary α-helical structure
melting temperature (Tm) of complex with N36 (N36 [4]; thermal denaturation monitored at 222 nm): about 72 °C
inhibition of HIV-1IIIB-mediated infection of MT-2 cells, compared with T20 (HIV-1IIIB): more potent
binding constant to POPC LUVs (POPC LUVs [5]): too weak to calculate the binding constant
6-HB formation with N36 (up-shift of peptide band) (N36 [6]): able to form 6-HB with N36
IC50 (94UG103 (clade A, X4R5); read-out: IC50 (Mean ± SD)): 3.94 ± 1.29 nM
IC90 (94UG103 (clade A, X4R5); read-out: IC90 (Mean ± SD)): 7.43 ± 2.16 nM
IC50 (92US657 (clade B, R5); read-out: IC50 (Mean ± SD)): 27.8 ± 8.66 nM
IC90 (92US657 (clade B, R5); read-out: IC90 (Mean ± SD)): 212 ± 84 nM
IC50 (92UG001 (clade D, X4R5); read-out: IC50 (Mean ± SD)): 11.9 ± 3.01 nM
IC90 (92UG001 (clade D, X4R5); read-out: IC90 (Mean ± SD)): 35.7 ± 6.59 nM
IC50 (93BR020 (clade F, X4R5); read-out: IC50 (Mean ± SD)): 12.5 ± 6.76 nM
IC90 (93BR020 (clade F, X4R5); read-out: IC90 (Mean ± SD)): 71.6 ± 28.5 nM
IC50 (92TH009 (clade E, R5); read-out: IC50 (Mean ± SD)): 210 ± 9.91 nM
IC90 (92TH009 (clade E, R5); read-out: IC90 (Mean ± SD)): 619 ± 39 nM
IC50 (93IN101 (clade C, R5); read-out: IC50 (Mean ± SD)): 34.3 ± 3.21 nM
IC90 (93IN101 (clade C, R5); read-out: IC90 (Mean ± SD)): 90.6 ± 6.5 nM
